Assay: xn = mol fraction of the nth substance listed
Conditions: 101 kPa, Liquid; for viscosity: Capillary tube (Ostwald / Ubbelohde) method

CCCCCCCCC [nonane] + COC(C)(C)C
Conditions	mass density [kg/m3]	viscosity [mPa·s]
308.15 K, x2 = 0	706.011	–
308.15 K, x2 = 0.1085	706.97	–
308.15 K, x2 = 0.1722	707.6	–
308.15 K, x2 = 0.3037	709.03	–
308.15 K, x2 = 0.4011	710.36	–
308.15 K, x2 = 0.5008	711.93	–
308.15 K, x2 = 0.6005	713.77	–
308.15 K, x2 = 0.6992	715.84	–
308.15 K, x2 = 0.6998	–	0.386
308.15 K, x2 = 0.7975	–	0.357
308.15 K, x2 = 0.8005	718.35	–
308.15 K, x2 = 0.8925	721.04	–
313.15 K, x2 = 0	702.076	0.555
313.15 K, x2 = 0.1006	–	0.529
313.15 K, x2 = 0.1085	702.96	–
313.15 K, x2 = 0.1722	703.52	–
313.15 K, x2 = 0.2026	–	0.498
313.15 K, x2 = 0.2995	–	0.472
313.15 K, x2 = 0.3037	704.82	–
313.15 K, x2 = 0.4011	706.05	–
313.15 K, x2 = 0.4045	–	0.446
313.15 K, x2 = 0.5003	–	0.421
313.15 K, x2 = 0.5008	707.49	–
313.15 K, x2 = 0.6005	709.18	–
313.15 K, x2 = 0.6035	–	0.391
313.15 K, x2 = 0.6992	711.09	–
313.15 K, x2 = 0.6998	–	0.367
313.15 K, x2 = 0.8005	713.41	–
313.15 K, x2 = 0.8925	715.91	–
318.15 K, x2 = 0	698.124	0.522
318.15 K, x2 = 0.1006	–	0.498
318.15 K, x2 = 0.1085	698.89	–
318.15 K, x2 = 0.1722	699.42	–
318.15 K, x2 = 0.2026	–	0.471
318.15 K, x2 = 0.2995	–	0.446
318.15 K, x2 = 0.3037	700.6	–
318.15 K, x2 = 0.4011	701.71	–
318.15 K, x2 = 0.4045	–	0.422
318.15 K, x2 = 0.5003	–	0.401
318.15 K, x2 = 0.5008	703.01	–
318.15 K, x2 = 0.6005	704.56	–
318.15 K, x2 = 0.6035	–	0.372
318.15 K, x2 = 0.6992	706.3	–
318.15 K, x2 = 0.6998	–	0.348
318.15 K, x2 = 0.8005	708.45	–
318.15 K, x2 = 0.8925	710.72	–
323.15 K, x2 = 0	694.151	0.493
323.15 K, x2 = 0.1006	–	0.47
323.15 K, x2 = 0.1085	694.83	–
323.15 K, x2 = 0.1722	695.3	–
323.15 K, x2 = 0.2026	–	0.446
323.15 K, x2 = 0.2995	–	0.423
323.15 K, x2 = 0.3037	696.34	–
323.15 K, x2 = 0.4011	697.34	–
323.15 K, x2 = 0.4045	–	0.402
323.15 K, x2 = 0.5003	–	0.382
323.15 K, x2 = 0.5008	698.51	–
323.15 K, x2 = 0.6005	699.89	–
323.15 K, x2 = 0.6035	–	0.354
323.15 K, x2 = 0.6992	701.46	–
323.15 K, x2 = 0.8005	703.35	–
323.15 K, x2 = 0.8925	705.48	–
328.15 K, x2 = 0	690.165	0.466
328.15 K, x2 = 0.1006	–	0.445
328.15 K, x2 = 0.1085	690.74	–
328.15 K, x2 = 0.1722	691.16	–
328.15 K, x2 = 0.2026	–	0.424
328.15 K, x2 = 0.2995	–	0.402
328.15 K, x2 = 0.3037	692.06	–
328.15 K, x2 = 0.4011	692.94	–
328.15 K, x2 = 0.4045	–	0.383
328.15 K, x2 = 0.5003	–	0.364
328.15 K, x2 = 0.5008	693.97	–
328.15 K, x2 = 0.6005	695.19	–
328.15 K, x2 = 0.6992	696.59	–
328.15 K, x2 = 0.8005	698.27	–
333.15 K, x2 = 0	686.154	0.442
333.15 K, x2 = 0.1006	–	0.423
333.15 K, x2 = 0.1085	686.64	–
333.15 K, x2 = 0.1722	686.99	–
333.15 K, x2 = 0.2026	–	0.404
333.15 K, x2 = 0.2995	–	0.383
333.15 K, x2 = 0.3037	687.76	–
333.15 K, x2 = 0.4011	688.5	–
333.15 K, x2 = 0.4045	–	0.365
333.15 K, x2 = 0.5003	–	0.347
333.15 K, x2 = 0.5008	689.39	–
333.15 K, x2 = 0.6005	690.45	–
333.15 K, x2 = 0.6992	691.66	–
333.15 K, x2 = 0.8005	693.14	–
338.15 K, x2 = 0	682.116	0.42
338.15 K, x2 = 0.1006	–	0.402
338.15 K, x2 = 0.1085	682.52	–
338.15 K, x2 = 0.1722	682.79	–
338.15 K, x2 = 0.2026	–	0.386
338.15 K, x2 = 0.2995	–	0.366
338.15 K, x2 = 0.3037	683.42	–
338.15 K, x2 = 0.4011	684.02	–
338.15 K, x2 = 0.4045	–	0.348
338.15 K, x2 = 0.5008	684.76	–
338.15 K, x2 = 0.6005	685.66	–
338.15 K, x2 = 0.6992	686.68	–
338.15 K, x2 = 0.8005	687.95	–
343.15 K, x2 = 0	678.06	0.399
343.15 K, x2 = 0.1006	–	0.383
343.15 K, x2 = 0.1085	678.37	–
343.15 K, x2 = 0.1722	678.57	–
343.15 K, x2 = 0.2026	–	0.368
343.15 K, x2 = 0.2995	–	0.351
343.15 K, x2 = 0.3037	679.05	–
343.15 K, x2 = 0.4011	679.52	–
343.15 K, x2 = 0.5008	680.11	–
343.15 K, x2 = 0.6005	680.83	–
348.15 K, x2 = 0	673.979	0.38
348.15 K, x2 = 0.1006	–	0.366
348.15 K, x2 = 0.1085	674.19	–
348.15 K, x2 = 0.1722	674.31	–
348.15 K, x2 = 0.2026	–	0.352
348.15 K, x2 = 0.3037	674.64	–
348.15 K, x2 = 0.4011	674.98	–
353.15 K, x2 = 0	669.872	0.362
353.15 K, x2 = 0.1006	–	0.35
353.15 K, x2 = 0.1085	669.95	–
353.15 K, x2 = 0.1722	670.02	–
353.15 K, x2 = 0.2026	–	0.338
353.15 K, x2 = 0.3037	670.19	–
353.15 K, x2 = 0.4011	670.38	–
358.15 K, x2 = 0	665.73	0.346
358.15 K, x2 = 0.1006	–	0.335
358.15 K, x2 = 0.1085	665.71	–
358.15 K, x2 = 0.1722	665.7	–
358.15 K, x2 = 0.3037	665.7	–
358.15 K, x2 = 0.4011	665.75	–
363.15 K, x2 = 0	661.557	–
363.16 K, x2 = 0.1085	661.43	–
363.16 K, x2 = 0.1722	661.33	–
363.16 K, x2 = 0.3037	661.17	–
